This assay can be described thus: Antagonist activity at human CXCR3 expressed in L1.2 cells assessed as inhibition of I-TAC-induced cell migration by flow cytometry. In general terms: In flow cytometry, cells or beads pass a laser one at a time.

Molecules are shown by their SMILES.

As a reminder, the IC50 is the midpoint of a concentration-inhibition curve.

`CCN(CC)C(=O)[C@@H]1C=C2c3cccc4[nH]cc(c34)C[C@H]2N(C(=O)Nc2ccccc2)C1` [(6aR,9R)-N9,N9-diethyl-N7-phenyl-6,6a,8,9-tetrahydroindolo[4,3-fg]quinoline-7,9(4H)-dicarboxamide]: the IC50 amounted to 74 nM.
